Reference: US20120330012A1, “Novel Tricyclic Compounds” (ABBOTT LABORATORIES, priority 2011, published 2012)
pIC50: −log10 of the molar value.

Key:
Jak3 = target: T1, Jak3 (Homo sapiens, UniProt P52333); test: In vitro Jak3 kinase activity measured by trFRET; format: biochemical; conditions: Jak3 enzyme aa 811-1103, 0.001 mM ATP
T1 construct: Jak3 enzyme (aa 811-1103); expressed in SF9 cells as a GST fusion; GST; made in house; host or cells: SF9 insect cells
Text: In Vitro Jak3 Kinase Activity Measured by Time-Resolved Fluorescence Resonance Energy Transfer (trFRET)

Syk = target: T2, Syk (Homo sapiens, UniProt P43405); test: In vitro Syk kinase activity measured by trFRET; format: biochemical; conditions: Syk catalytic domain aa356-635, 0.001 mM ATP
T2 construct: Syk catalytic domain (aa356-635, purified in-house at the Abbott Bioresearch Center); His tag (C); made in house; host or cells: SF9 insect cells
Experimental: In Vitro Syk Kinase Activity Measured by Time-Resolved Fluorescence Resonance Energy Transfer (trFRET)
0.3 nM Syk catalytic domain (aa356-635, purified in-house at the Abbott Bioresearch Center) was mixed with 0.1 μM peptide substrate (biotin-TYR1, Sequence: Biotin-(Ahx)-[…]-COOH) at varying concentrations of inhibitor in reaction buffer: 50 mM MOPSO pH 6.5, 10 mM MgCl2, 2 mM MnCl2, 2.5 mM DTT, 0.01% BSA, 0.1 mM Na3VO4 and 0.001 mM ATP. After about 60 min incubation at rt, the reaction was quenched by addition of EDTA (final concentration: 100 mM) and developed by addition of revelation reagents (final approximate concentrations: 30 mM HEPES pH 7.0, 0.06% BSA, 0.006% Tween-20, 0.24 M KF, 90 ng/mL PT66K (europium labeled anti-phosphotyrosine antibody cat #61T66KLB Cisbio, Bedford, Mass.) and 0.6 μg/mL SAXL (Phycolink streptavidin-allophycocyanin acceptor, cat #PJ52S, Prozyme, San Leandro, Calif.). The developed reaction was incubated in the dark either at about 4° C. for about 14 h or for about 60 min at rt, then read via a time-resolved fluorescence detector (Rubystar, BMG) using a 337 nm laser for excitation and emission wavelength of 665 nm. Within the linear range of the assay, the observed signal at 665 nm is directly related to phosphorylated product and used to calculate the IC50 values.

T1 sequence (P52333 811-1103): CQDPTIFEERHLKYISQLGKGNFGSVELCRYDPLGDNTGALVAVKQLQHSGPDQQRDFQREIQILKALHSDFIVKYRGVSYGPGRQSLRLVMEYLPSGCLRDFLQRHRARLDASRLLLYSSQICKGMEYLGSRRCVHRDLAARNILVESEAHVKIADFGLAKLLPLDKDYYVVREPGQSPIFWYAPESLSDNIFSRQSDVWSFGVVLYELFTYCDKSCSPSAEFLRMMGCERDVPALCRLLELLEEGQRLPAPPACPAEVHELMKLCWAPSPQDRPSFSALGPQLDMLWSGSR

pIC50 (Jak3)	pIC50 (Syk)	SMILES
5.00 to 6.00		N#CC1(C(=O)N2CCCC(c3nnn4cnc5[nH]ccc5c34)C2)CC1 (racemic) [Examples #5 and #6, Step E, 1-(3-(7H-Pyrrolo[3,2-e][1,2,3]triazolo[1,5-c]pyrimidin-1-yl)piperidine-1-carbonyl)cyclopropanecarbonitrile]
5.00 to 6.00		N#CC1(C(=O)N2CCC[C@H](c3nnn4cnc5[nH]ccc5c34)C2)CC1 (single isomer, unassigned) [compound 5]
6.00 to 7.00		N#CC1(C(=O)N2CCC[C@@H](c3nnn4cnc5[nH]ccc5c34)C2)CC1 (single isomer, unassigned) [compound 6]
	5.00 to 6.00	c1cc(-c2cc3c(ncn4ccnc34)[nH]2)ccn1 [Example #12, 8-(Pyridin-4-yl)-7H-imidazo[1,2-c]pyrrolo[3,2-e]pyrimidine]
	5.00 to 6.00	CC(=O)N1CCCC(c2nc(-c3ccc(C(C)C)cc3)n3cnc4[nH]ccc4c23)C1 (stereo not shown) [Example #13, 1-(3-(3-(4-Isopropylphenyl)-7H-imidazo[1,5-c]pyrrolo[3,2-e]pyrimidin-1-yl)piperidin-1-yl)ethanone]

The next lines start with the compound.

SMILES	pIC50 (Jak3)	pIC50 (Syk)
c1cc2c(ncn3cnc(C4CCCCC4)c23)[nH]1 [Example #1, 1-Cyclohexyl-7H-imidazo[1,5-c]pyrrolo[3,2-e]pyrimidine]		5.00 to 6.00
c1cc2c(ncn3nnc(C4CCCCC4)c23)[nH]1 [Example #2, 1-Cyclohexyl-7H-pyrrolo[3,2-e][1,2,3]triazolo[1,5-c]pyrimidine]	5.00 to 6.00	< 5.00
CC(C)c1nc(C2CCCN(C(=O)OCc3ccccc3)C2)c2c3cc[nH]c3ncn12 (stereo not shown) [Example #3, Benzyl 3-(3-isopropyl-7H-imidazo[1,5-c]pyrrolo[3,2-e]pyrimidin-1-yl)piperidine-1-carboxylate]	5.00 to 6.00	
O=C(OCc1ccccc1)N1CCCC(c2ncn3cnc4[nH]ccc4c23)C1 (stereo not shown) [Example #4, Benzyl 3-(7H-imidazo[1,5-c]pyrrolo[3,2-e]pyrimidin-1-yl)piperidine-1-carboxylate]	5.00 to 6.00	
CCCNC(=O)c1ccc(Nc2nc3[nH]ccc3c3nccn23)cc1 [Example #7, 4-(7H-Imidazo[1,2-c]pyrrolo[3,2-e]pyrimidin-5-ylamino)-N-propylbenzamide]		< 5.00
COc1ccc(-c2nnc3c4cc[nH]c4ncn23)cc1 [Example #8, 3-(4-Methoxyphenyl)-7H-pyrrolo[3,2-e][1,2,4]triazolo[4,3-c]pyrimidine]		< 5.00
CS(=O)(=O)c1ccc(-c2nnc3c4cc[nH]c4ncn23)cc1 [Example #9, 3-(4-(Methylsulfonyl)phenyl)-7H-pyrrolo[3,2-e][1,2,4]triazolo[4,3-c]pyrimidine]		< 5.00
CC(C)(O)c1ccc(-c2cnc3c4cc[nH]c4ncn23)cc1 [Example #10, 2-(4-(7H-Imidazo[1,2-c]pyrrolo[3,2-e]pyrimidin-3-yl)phenyl)propan-2-ol]		6.00 to 7.00
Brc1cnc2c3cc[nH]c3ncn12 [Example #10, Step D, 3-bromo-7H-imidazo[1,2-c]pyrrolo[3,2-e]pyrimidine]		< 5.00
c1cncc(-c2cn3cnc4[nH]ccc4c3n2)c1 [Example #11, 2-(Pyridin-3-yl)-7H-imidazo[1,2-c]pyrrolo[3,2-e]pyrimidine]		5.00 to 6.00
